The text below walks through data of patent US20070111251A1, “Chemical address tags” (priority 2003, published 2007).

Data set [1] can be described thus: Additive decomposition of peak excitation and emission wavelengths (model coefficients of A and B groups). Conditions: for αi^em: influence of A group on peak emission wavelength; for αi^em / αi^ex: A group 1 as baseline; for αi^ex: influence of A group on peak excitation wavelength; for βj^em: influence of B group on peak emission wavelength; for βj^em / βj^ex: B group 1 as baseline; for βj^ex: influence of B group on peak excitation wavelength. From the text: The chemical structure of the styryl library is illustrated in FIG. 3. […] Initial analysis focused on measurements of peak emission and excitation wavelength obtained for all styryl products showing a single, localized peak (there were 256 such compounds for emission wavelength, and 193 compounds for excitation wavelength). […] The wavelength for the styryl compound formed by joining A group i with B group j is denoted as λij (or more specifically, λij^ex for excitation wavelength and λij^em for emission wavelength). The additive model λij=ai+βj+εij was fit to the data using least squares yielding parameters αi^ex, αi^em, βj^ex, and βj^em that quantify the influence of each A and B group on the spectrum of the styryl product. […] (FIGS. 8A-8B). […] The predictions were made ignoring interactions between the two functional moieties in the styryl compound. The predicted values were obtained without bias, by holding out the data point to be predicted when training the model.
In preferred embodiments, using the cross-validation approach disclosed herein, each compound was held out in sequence, the model was trained using the remaining compounds, then the wavelength value for the held-out compound was predicted based on the resulting fitted model. This process produced correlations between measured and predicted values of ρ^em=0.78 (emission) and ρ^ex=0.69 (excitation).
Based on this analysis, the contribution of the A and B functional groups to the fluorescence of the styryl product is quantified using the fitted coefficients αi^ex, βj^ex, […], and βj^em. Since these coefficients are on a scale without origin, in some embodiments, the invention uses the first A group and B group as a baseline, so […], β1^ex=0, and so on. Table 3 contains the model coefficients of all A and B groups for peak excitation and emission wavelength.
Greater values of αi^ex, αi^em, βj^ex, and βj^em indicate greater peak wavelength. Greater values of αi^mito and […] indicate stronger mitochondrial localization. A groups 40 and 41 were not screened for localization. A groups 2, 29, and 33 only formed fluorescent products with a single B group, so were not included in the spectral analysis.
In some embodiments, the wavelength values for peak excitation and emission were fit to the additive model λij=αi+βj+εij, where εij denotes error that is made as small as possible in the fitting process. Using least squares to minimize the function [formula] over all compounds having experimental data yields coefficient estimates αi for each A group and βj for each B group. One set of coefficient estimates is obtained for the excitation values and another set is obtained for the emission values. To predict the wavelength of a new compound formed from A and B groups i* and j* the sum αi*+βj* is used.
In some embodiments, for both the spectral and localization analysis, cross-validation was used to obtain unbiased estimates of the prediction performance. Each compound was held out in sequence, and the coefficients αi and βj were fit to the remaining compounds. These values were then used to form a prediction for the held out compound, then the predicted and experimental values were compared to obtain a measure of the accuracy of prediction. Since the wavelength values are on a continuous scale, the predicted values were compared to the experimental values using Pearson correlation coefficients. The localization values are dichotomous, so the proportion of matching predictions was used to compare predicted and experimental localization values.

The test system of data set [2] is mitochondria. Briefly: QSLR factorial logistic regression of mitochondrial localization (affinity coefficients, cross-validated prediction). On the set-up: species or system human. The settings on record: for αi^mito: influence of A group on mitochondrial localization, greater = stronger; for estimated A group affinity coefficient ai / estimated B group affinity coefficient bj: mitochondrial affinity; for estimated A group affinity coefficient ai: ±5 for groups always or never mitochondrial; for βj^mito: influence of B group on mitochondrial localization. From the text: The first column and first row contain the A group and B group labels. The second column and second row contain the estimated A group and B group affinity coefficients (ai and bj respectively). The interior of the table contains the value sij=ai+bj for each compound (where positive values of sij indicate predicted localization to mitochondria, and negative values of sij indicate predicted localization to a non-mitochondrial compartment). The subscript m indicates experimentally determined mitochondrial localization. The subscript o indicates experimentally determined non-mitochondrial localization. The darkened boxes indicate correctly predicted mitochondrial localizations under cross-validation.
Based on this matrix, factorial logistic regression (See, A. Agresti, Categorical Data Analysis, Wiley [2002]) was used to calculate mitochondrial affinity coefficients (ai and bj) for each A and B moiety. (Table 1). Since it is not necessary to observe all possible pairings between A and B building blocks to estimate the affinity coefficients, the QSLR approach can predict localization of unmeasured styryl molecules based on a minimal set of experimentally-determined localizations (see Methods). The methods of the present invention allow assessment of predictivity using the cross-validation technique by holding out one compound and fitting the affinity coefficients using the remaining compounds, predictivity can be assessed by comparing the actual localization of the held-out compound to its predicted localization. Repeating this for every measured compound in the library yields an error rate for the procedure.
Briefly, this technique assigns quantitative scores to each A group (αi^mito) and to each B group (βj^mito), in such a way that αi^mito+βj^mito is positive for compounds with mitochondrial localization, and is negative for compounds lacking mitochondrial localization. […] In additional embodiments, same analysis can be applied to organelles other than mitochondria, provided there are a sufficient number of localizations to specific non-mitochondrial organelles in the combinatorial library of interest for reliable statistical calculations.
In certain embodiments, the predictive performance of the above method was assessed using a cross-validation approach by calculating the proportion of all compounds that are correctly predicted. For cross-validation, each styryl product was set aside in sequence, and the factorial logistic model was fit to the remaining data. Then the resulting A and B scores for the held-out compound were summed. If the sum was positive, the held-out compound was predicted to be mitochondrial, while if the sum was negative, the held-out compound was predicted to be non-mitochondrial. […] The baseline performance of the method scored 104 correct out of 145, or 72%. This number is highly statistically significant compared to random guessing (p-value ˜10^−7). Thus, across the entire library, A and B moieties appear to contribute to localization in an independent, additive fashion.
In some embodiments, subcellular localization data were converted to binary (0/1) values by assigning a value Gij=1 if compound i,j localized to mitochondria (even if it localized to other […] as well), and assigning Gij=0 if compound i,j localized exclusively to any non-mitochondrial cellular structure. Compounds with no localization were omitted from this part of the analysis. The αi and βj coefficients for A or B groups that are always observed to localize to mitochondria, or that never localize to mitochondria, were set to +/−5, respectively. The binary localization data were analyzed using factorial logistic regression. […]

In the case of `O=Cc1ccc(OCc2ccccc2)c(OCc2ccccc2)c1` [A group 12], in data set [1], the “αi^em” value is reported as −22.7 nm and the “αi^ex” value is reported as −36.7 nm. Moreover, in data set [2], the “αi^mito” value was −3.3 and the “estimated A group affinity coefficient ai” value was −3.3.

In the case of `COc1ccccc1C=O` [A group 9], in data set [1], the “αi^em” value is recorded as −17.6 nm and the “αi^ex” value is −36.7 nm. In addition, in data set [2], the “αi^mito” value was 5.0 and the “estimated A group affinity coefficient ai” value is on record as 5.0.

For `CCc1ccc(C)[n+](C)c1.[I-]` [B group 5], in data set [1], the “βj^em” value is −7.6 nm and the “βj^ex” value is reported as −1.6 nm. In data set [2], the “βj^mito” value is given as 2.2 and the “estimated B group affinity coefficient bj” value was 2.3.

For `COc1ccc2ccccc2c1C=O` [A group 23], in data set [1], the “αi^em” value is given as −10.3 nm and the “αi^ex” value worked out at 6.1 nm. Further, in data set [2], the “αi^mito” value is recorded as −5.0 and the “estimated A group affinity coefficient ai” value is given as −5.0.

As for `CN(C)c1ccc(C=O)cc1` [A group 19], in data set [1], the “influence of group on peak wavelength” value was “strongly contribute towards the red end of the spectrum”, the “αi^em” value was 49.6 nm and the “αi^ex” value is listed as 26.0 nm. Further, in data set [2], the “αi^mito” value is reported as −0.2 and the “estimated A group affinity coefficient ai” value is on record as −0.2.

Consider `Cc1cc[n+](C23CC4CC(CC(C4)C2)C3)cc1.[Br-]` [B group 2], for which, in data set [1], the “βj^em” value was found to be 4.3 nm and the “βj^ex” value worked out at 4.9 nm. In data set [2], the “βj^mito” value is given as 2.0 and the “estimated B group affinity coefficient bj” value is reported as 2.0.

On to `CN(C)c1ccc(C=O)c2ccccc12` [A group 27], for which, in data set [1], the “influence of group on peak wavelength” value was “strongly contribute towards the red end of the spectrum”, the “αi^em” value was determined as 72.0 nm and the “αi^ex” value worked out at 11.1 nm. Also, in data set [2], the “αi^mito” value is −0.3 and the “estimated A group affinity coefficient ai” value was −0.3.

As for `Cc1cc(C)[n+](C)c(C)c1.[I-]` [B group 13], in data set [1], the “βj^em” value is −1.8 nm and the “βj^ex” value is on record as −1.1 nm. In data set [2], the “βj^mito” value is given as 2.5 and the “estimated B group affinity coefficient bj” value is on record as 2.5.

On to `Cc1cccc(C)[n+]1C.[I-]` [B group 12], for which, in data set [1], the “βj^em” value is −1.7 nm and the “βj^ex” value is listed as −10.2 nm. Also, in data set [2], the “βj^mito” value is reported as 2.7 and the “estimated B group affinity coefficient bj” value is on record as 2.7.

On to `O=Cc1cccc(Br)c1` [A group 4], for which, in data set [1], the “αi^em” value amounted to 23.5 nm and the “αi^ex” value is given as −34.0 nm. For the same compound, in data set [2], the “αi^mito” value was −5.0 and the “estimated A group affinity coefficient ai” value was −5.0.

Consider `O=Cc1ccc2c(c1)Cc1ccccc1-2` [A group 28], for which, in data set [1], the “αi^em” value came to 44.9 nm and the “αi^ex” value came to 2.4 nm. In addition, in data set [2], the “αi^mito” value is on record as −5.0 and the “estimated A group affinity coefficient ai” value is on record as −5.0.

On to `O=Cc1ccc2c(c1)OCO2` [A group 39], for which, in data set [1], the “αi^em” value was −25.3 nm and the “αi^ex” value is recorded as −28.3 nm. Also, in data set [2], the “αi^mito” value is reported as 0.0 and the “estimated A group affinity coefficient ai” value is listed as 0.0.

In the case of `CN(C)c1ccc(C=CC=O)cc1` [A group 37], in data set [1], the “influence of group on peak wavelength” value is “strongly contribute towards the red end of the spectrum”, the “αi^em” value is given as 122.1 nm and the “αi^ex” value is listed as 82.9 nm. For the same compound, in data set [2], the “αi^mito” value is on record as −0.9 and the “estimated A group affinity coefficient ai” value is reported as −0.9.

Regarding `O=Cc1ccc([N+](=O)[O-])cc1` [A group 22], in data set [1], the “influence of group on peak wavelength” value is given as “the far red shift is not observed”, the “αi^em” value is −10.3 nm and the “αi^ex” value is given as −52.8 nm. Also, in data set [2], the “αi^mito” value was 5.0 and the “estimated A group affinity coefficient ai” value is listed as 5.0.

In the case of `O=Cc1ccc(F)cc1` [A group 30], in data set [1], the “influence of group on peak wavelength” value is reported as “redder”, the “αi^em” value is 50.1 nm and the “αi^ex” value was 7.4 nm. For the same compound, in data set [2], the “influence of A group on mitochondrial localization” value is “mitochondrial attraction”, the “αi^mito” value was 5.0 and the “estimated A group affinity coefficient ai” value is reported as 5.0.

For `Cc1cccc[n+]1C.[I-]` [B group 3], in data set [1], the “βj^em” value was −2.7 nm and the “βj^ex” value was −12.7 nm. Moreover, in data set [2], the “βj^mito” value was 4.2 and the “estimated B group affinity coefficient bj” value was 4.2.

With `Cc1ccc[n+](C)c1C.[I-]` [B group 4], in data set [1], the “βj^em” value is reported as −23.2 nm and the “βj^ex” value is reported as −32.3 nm. In data set [2], the “βj^mito” value is listed as 3.0 and the “estimated B group affinity coefficient bj” value is given as 3.0.

On to `O=CC=Cc1ccccc1` [A group 35], for which, in data set [1], the “αi^em” value is −8.3 nm and the “αi^ex” value is recorded as 0.0 nm. Moreover, in data set [2], the “αi^mito” value was −1.8 and the “estimated A group affinity coefficient ai” value is on record as −1.8.

Regarding `Cc1ccc2ccccc2[n+]1C.[I-]` [B group 8], in data set [1], the “influence of group on peak wavelength” value was “strongly contribute towards the red end of the spectrum”, the “βj^em” value was found to be 64.8 nm and the “βj^ex” value came out at 53.0 nm. In data set [2], the “βj^mito” value was 0.4 and the “estimated B group affinity coefficient bj” value is on record as 0.4.

For the compound `Cc1cc[n+](C)c2ccccc12.[I-]` [B group 7], in data set [1], the “influence of group on peak wavelength” value is “strongly contribute towards the red end of the spectrum”, the “βj^em” value is on record as 63.7 nm and the “βj^ex” value worked out at 29.6 nm. Further, in data set [2], the “βj^mito” value was 3.5 and the “estimated B group affinity coefficient bj” value is listed as 3.5.

As to `O=Cc1ccc(O)cc1` [A group 16], in data set [1], the “αi^em” value was −24.8 nm and the “αi^ex” value is reported as −36.3 nm. For the same compound, in data set [2], the “αi^mito” value was −1.9 and the “estimated A group affinity coefficient ai” value is recorded as −1.9.
